Measured values reported in patent US11628199B2, “Medicine for combined use in cancer treatment” (SICHUAN JIUZHANG BIOLOGICAL SCIENCE AND TECHNOLOGY CO., LTD, priority 2017, dated 2023).
Where a SMILES comes first, the peptide text is derived from it. [ ]: non-standard residue; d: D form. The star is where a group is joined. dPhe(4-NHCONH2) = NC(=O)Nc1ccc(C[C@@H](N)C(=O)O)cc1; Dihydroorotyl(S) = O=C1C[C@@H](C(=O)*)NC(=O)N1; dPhe(4-Cl) = N[C@H](Cc1ccc(Cl)cc1)C(=O)O; Phe(4-NH2) = Nc1ccc(C[C@H](N)C(=O)O)cc1; d2Nal = N[C@H](Cc1ccc2ccccc2c1)C(=O)O; Lys(iPr) = CC(C)NCCCC[C@H](N)C(=O)O; NMeY = CN[C@@H](Cc1ccc(O)cc1)C(=O)O; d3Pal = N[C@H](Cc1cccnc1)C(=O)O

Columns and labels:
[1] = tested on: RM-1 mouse prostate cancer cell lines; experiment: In vivo mouse xenograft tumor of RM-1 prostate cancer, chlorogenic acid combined with abarelix or degarelix
Protocol: Test drug: chlorogenic acid, abarelix, degarelix.
Test cell lines: RM-1 mouse prostate cancer cell lines.
(§1) Cells in exponential phase of growth were taken out, digested with trypsin to […], and then cell suspension was prepared by addition of saline.
When the tumor volume in the negative group was about 0.5 cm^3, the experiment was stopped. The mice were sacrificed by cervical dislocation and weighed. The tumors were removed and weighed to calculate the tumor inhibitory rate.

[2] = tested on: drug-resistant RM-1 mouse prostate cancer cell lines (abarelix-induced); experiment: In vivo mouse xenograft tumor of drug-resistant RM-1 prostate cancer, chlorogenic acid combined with abarelix; conditions: for Tumor weight: x ± s; for inhibitory rate of mouse xenograft tumor of drug-resistant RM-1 prostate cancer (in words): groups and doses as in Table 3
Protocol: Test drug: chlorogenic acid, abarelix.
Test cell lines: RM-1 mouse prostate cancer cell lines. RM-1 cell lines were induced by increasing concentration gradient of aberlix and established by clone and screen. Prior to experiment, cell lines were cultured without drug.
Test animals: Kunming mice, ♂, weight 17-24 g.
Drug-resistant cell lines after removal of drug were adjusted to the concentration of 1×10^7/mL with culture medium, and inoculated under the right anterior armpit of mice at 0.1 ml/mouse.
After the mean diameter of tumor reached 100 mm^3, mice were divided into 4 groups, i.e. abarelix group, chlorogenic acid+abarelix group, chlorogenic acid group, and the negative control group, respectively.
Abarelix group: intraperitoneal injection, once every seven days, 15 mg/kg, two doses in total.
chlorogenic acid+abarelix group: chlorogenic acid was intraperitoneally injected, once every day, 10 mg/kg, continuous administration for 5 days; After withdrawal of chlorogenic acid, abarelix was intraperitoneally injected on the next day, once every 7 days, 15 mg/kg, two doses in total.
Chlorogenic acid group: intraperitoneal injection, once every day, 10 mg/kg, continuous administration for 5 days; after that, saline was intraperitoneally injected, once every day, continuing 10 days.
Negative control group: intraperitoneal injection of saline, once every day, continuing 15 days.
After completion of administration, the experiment was stopped, and mice were sacrificed by cervical dislocation and weighed. The tumors were removed and weighed to calculate the tumor inhibitory rate.

[3] = tested on: EMT-6 mouse breast cancer cell lines; experiment: In vivo mouse xenograft tumor of EMT-6 breast cancer, chlorogenic acid combined with fulvestrant
Protocol: Test drug: chlorogenic acid, fulvestrant.
Test cell lines: EMT-6 mouse breast cancer cell lines.
as §1
Fulvestrant group received drug once by intraperitoneal injection on the next day after inoculation; chlorogenic acid group received drug once every day by intraperitoneal injection from the next day after inoculation, and the drug was successively administrated 15 times; combined medicine group received intraperitoneal injection of fulvestrant once on the next day after inoculation, and intraperitoneal injection of chlorogenic acid once every day from the next day after inoculation; the negative control group received saline by intraperitoneal injection once every day from the next day after inoculation, and saline was continuously given 15 times. When the tumor volume in the negative group was about 0.5 cm^3, the experiment was stopped. The mice were sacrificed by cervical dislocation and weighed. The tumors were removed and weighed to calculate the tumor suppression rate.
(2) If both drugs are combined, Q=E(a+b)/(Ea+Eb−Ea×Eb), in which E(a+b) is the inhibition rate for the combination of two drugs, i.e. the tested combined effect; Ea and Eb is respectively the inhibition rates of two drugs when they are separately used; the denominator (Ea+Eb−Ea×Eb) is the expected combined effect.

[4] = abarelix 15 mg·kg^−1 i.p. once every seven days, two doses
[5] = degarelix 30 mg·kg^−1 s.c. once
[6] = fulvestrant 40 mg·kg^−1 i.p. once
[7] = chlorogenic acid 10 mg·kg^−1 i.p. once daily, 15 times
[8] = chlorogenic acid 20 mg·kg^−1 i.p. once daily, 15 times
[9] = chlorogenic acid 40 mg·kg^−1 i.p. once daily, 15 times

**Q.** With `CC(=O)N[C@H](Cc1ccc2ccccc2c1)C(=O)N[C@H](Cc1ccc(Cl)cc1)C(=O)N[C@H](Cc1cccnc1)C(=O)N[C@@H](CO)C(=O)N(C)[C@@H](Cc1ccc(O)cc1)C(=O)N[C@H](CC(N)=O)C(=O)N[C@@H](CC(C)C)C(=O)N[C@@H](CCCCNC(C)C)C(=O)N1CCC[C@H]1C(=O)N[C@H](C)C(N)=O` [Abarelix, abarelix] (Ac-[d2Nal][dPhe(4-Cl)][d3Pal]S[NMeY][dN]L[Lys(iPr)]P[dA]-NH2) as the compound, how does the Tumor inhibitory rate ([1]; abarelix 15 mg·kg^−1 i.p. once) read?
**A.** The Tumor inhibitory rate was 42.73%.

**Q.** What about the Tumor weight ([1]; abarelix 15 mg·kg^−1 i.p. once) of the same compound?
**A.** The Tumor weight was 0.886 ± 0.521 g.

**Q.** What about the Tumor inhibitory rate [2, 4] of the same compound?
**A.** Its Tumor inhibitory rate is 4.84%.

**Q.** And the Tumor weight [2, 4]?
**A.** Its Tumor weight is 2.339 ± 0.614 g.

**Q.** And the “inhibitory rate of mouse xenograft tumor of drug-resistant RM-1 prostate cancer (in words)” value [2]?
**A.** The value was “weaker, without obvious suppression effect”.

**Q.** For `CC(=O)N[C@H](Cc1ccc2ccccc2c1)C(=O)N[C@H](Cc1ccc(Cl)cc1)C(=O)N[C@H](Cc1cccnc1)C(=O)N[C@@H](CO)C(=O)N[C@@H](Cc1ccc(NC(=O)[C@@H]2CC(=O)NC(=O)N2)cc1)C(=O)N[C@H](Cc1ccc(NC(N)=O)cc1)C(=O)N[C@@H](CC(C)C)C(=O)N[C@@H](CCCCNC(C)C)C(=O)N1CCC[C@H]1C(=O)N[C@H](C)C(N)=O` [Degarelix, degarelix] (Ac-[d2Nal][dPhe(4-Cl)][d3Pal]S[Phe(4-NH2)](Dihydroorotyl(S))[dPhe(4-NHCONH2)]L[Lys(iPr)]P[dA]-NH2), which Tumor inhibitory rate [1, 5] is on record?
**A.** Its Tumor inhibitory rate is 50.61%.

**Q.** What about the Tumor weight [1, 5] of the same compound?
**A.** The Tumor weight was 0.764 ± 0.218 g.

**Q.** Which Tumor inhibitory rate [3, 6] does the source give for `C[C@]12CC[C@@H]3c4ccc(O)cc4C[C@@H](CCCCCCCCC[S+]([O-])CCCC(F)(F)C(F)(F)F)[C@H]3[C@@H]1CC[C@@H]2O` (stereo partly drawn) [Fulvestrant, fulvestrant] here?
**A.** The Tumor inhibitory rate was 43.40%.

**Q.** What about the Tumor weight [3, 6] of the same compound?
**A.** The Tumor weight was 0.746 ± 0.311 g.

**Q.** For `O=C(/C=C/c1ccc(O)c(O)c1)O[C@@H]1C[C@](O)(C(=O)O)C[C@@H](O)[C@H]1O` [chlorogenic acid, 3-o-caffeoylquinic acid], which Tumor inhibitory rate [1, 7] is on record?
**A.** Its Tumor inhibitory rate is 24.05%.

**Q.** And the Tumor weight ([1]; chlorogenic acid 10 mg·kg^−1 i.p. once daily, 15 times, Kunming mice)?
**A.** The Tumor weight was 1.175 ± 0.117 g.

**Q.** What about the Tumor inhibitory rate [1, 8] of the same compound?
**A.** The Tumor inhibitory rate was 27.86%.

**Q.** What about the Tumor weight ([1]; chlorogenic acid 20 mg·kg^−1 i.p. once daily, 15 times, Kunming mice) of the same compound?
**A.** Its Tumor weight is 1.116 ± 0.358 g.

**Q.** And the Tumor inhibitory rate [1, 9]?
**A.** Its Tumor inhibitory rate is 28.57%.

**Q.** And the Tumor weight ([1]; chlorogenic acid 40 mg·kg^−1 i.p. once daily, 15 times, Kunming mice)?
**A.** The Tumor weight was 1.105 ± 0.641 g.

**Q.** What about the Tumor inhibitory rate [3, 7] of the same compound?
**A.** Its Tumor inhibitory rate is 31.94%.

**Q.** What about the Tumor weight ([3]; chlorogenic acid 10 mg·kg^−1 i.p. once daily, 15 times, BALB/C-nu mice) of the same compound?
**A.** Its Tumor weight is 0.897 ± 0.346 g.

**Q.** What about the Tumor inhibitory rate [3, 8] of the same compound?
**A.** The Tumor inhibitory rate was 36.95%.

**Q.** What about the Tumor weight ([3]; chlorogenic acid 20 mg·kg^−1 i.p. once daily, 15 times, BALB/C-nu mice) of the same compound?
**A.** The Tumor weight was 0.831 ± 0.221 g.

**Q.** And the Tumor inhibitory rate [3, 9]?
**A.** Its Tumor inhibitory rate is 42.03%.

**Q.** And the Tumor weight ([3]; chlorogenic acid 40 mg·kg^−1 i.p. once daily, 15 times, BALB/C-nu mice)?
**A.** Its Tumor weight is 0.764 ± 0.539 g.

**Q.** What about the Tumor inhibitory rate ([2]; chlorogenic acid 10 mg·kg^−1 i.p. once daily for 5 days) of the same compound?
**A.** Its Tumor inhibitory rate is 8.41%.

**Q.** And the Tumor weight ([2]; chlorogenic acid 10 mg·kg^−1 i.p. once daily for 5 days, then saline 10 days)?
**A.** Its Tumor weight is 2.251 ± 0.581 g.

**Q.** What about the “inhibitory rate of mouse xenograft tumor of drug-resistant RM-1 prostate cancer (in words)” value [2] of the same compound?
**A.** Its value is “weaker, without obvious suppression effect”.
